{"source": "patent US6107305A", "about": "“Use of pyrazolo [3,4-b] pyridine as cyclin dependent kinase inhibitors” (Bristol-Myers Squibb Company, priority 1998, dated 2000)", "origin": "cited, not measured here", "key": {"apoptosis": {"test_system": "apoptosis", "details": "J. Cell Sci., 108, 2897 (1995)"}}}
{"compound": "CN1CC[C@H](c2c(O)cc(O)c3c(=O)cc(-c4ccccc4Cl)oc23)[C@H](O)C1", "note": "[flavopiridol]", "values": [{"measurement": "effect of sequence of administration with anticancer agents on cytotoxic activity", "setting": "cytotoxic activity", "value": "affected by the sequence of administration with anticancer agents"}]}
{"compound": "Cn1cnc2c(NCc3ccccc3)nc(NCCO)nc21", "note": "[olomucine]", "values": [{"measurement": "synergism with known cytotoxic agents in inducing apoptosis", "setting": "apoptosis", "value": "act synergistically with known cytotoxic agents in inducing apoptosis"}]}
